{"source": "patent US20070077607A1", "about": "“Novel screening method” (priority 2003, published 2007)", "key": {"HOB cells": {"tested_on": "HOB cells", "test": "Cell adhesion assay (cell attachment and cell spreading), HOB cells", "assay_type": "cell-based, human", "details": "for inhibition at 5 µM: Homo sapiens", "description": "To evaluate cell attachment and cell spreading exponentially growing cells were detached from substratum by trypsinisation (0.25% (v/v) trypsin in 5 mM EDTA), collected into medium containing a ˜7% (V/V) final concentration of FCS, washed twice with medium without serum and then plated (2×10^4cells/well) onto FN-coated 96-well plates with and without further immobilisation of tTG. After a maximum of 20-minute incubation (to minimise the effect of any endogenous secreted proteins) at 37° C. in a 5% CO2 atmosphere, cells were fixed in 3.7% (w/v) paraformaldehyde in PBS pH 7.4, permeabilised in 0.1% (v/v) Triton X-100 and stained with May Grunwald and Giemsa stain (Jones et al 1997, Verderio et al. 2000). In some cases cells were pre-treated for 15 hours with 1 mM cycloheximide before plating to rule out any effects of endogenous secreted adhesion molecules. Digital images of three non-overlapping fields covering the central portion of each well was captured using a video digital camera (Olympus DP10) and examined using the Image Analysis programme Scion Image (National Institute of Health, USA). A total of at least nine images of separate fields per sample were examined for a total of at least 900 cells in the FN control. The number of cell particles in each field was measured by thresholding and particle analysis setting a minimum particle size of 50 pixels. Spread cells were analysed and quantified by “density slicing” and particle analysis.\nAdhesion of cells to FN was decreased by pre-incubation with RGD synthetic peptide (50 μg/ml, ˜75 ∝M, 100 μg/ml ˜150 μM, or 200 μg/ml ˜300 μM) or function blocking anti-integrin antibodies 40 μg/ml anti-β1 integrin (JB1A), 30 μg/ml anti-α5 integrin (P1D6). Detached cells (as described above) were pre-incubated in suspension (2×10^5cells/ml) in serum-free medium containing either RGD peptide or anti-integrins antibodies at 37° C. for 10 minutes in 5% CO2 atmosphere, and then seeded in the presence of the peptides."}, "human plasma FN": {"tested_on": "human plasma FN", "test": "ELISA-type assay of tTG bound to immobilised FN", "assay_type": "binding", "details": "1 mM GTP-γS; ELISA using Cub 74", "description": "The wells of a 96-well plate (0.32 cm^2) were coated with human plasma FN (5 μg/ml) in 50 mM Tris-HCl, pH 7.4, […], by incubation at 4° C. for approximately 15 h. For tTG immobilisation, the FN solution was removed, the wells were washed once in 50 mM Tris-HCl, pH 7.4 and then incubated with purified guinea pig liver tTG (20 μg/ml) in PBS pH 7.4 containing 2 mM EDTA pH 7.4, 100 μl/well. For control wells coated with tTG only, the tTG solution was added directly to tissue culture plastic (TCP). After one hour-incubation at 37° C., the tTG solution was removed and wells were washed once in 50 mM Tris-HCl, pH 7.4 and once in serum-free culture medium before cell seeding. The presence of tTG immobilised on FN was confirmed by an ELISA-type assay (Jones et al. 1997), using Cub 74 (1:5000). Absorbance values were read in an ELISA plate reader at 450 nm (Tecan Spectrafluor). […] Absorbance values were read at 450 nm and data were expressed as absorbance value with Ca^2+ in the reaction buffer minus background absorbance value with EDTA in the reaction buffer. Similarly to tTG, FN antigen was detected by using a modified ELISA based on a rabbit polyclonal anti-FN antibody (1/5000) followed by peroxidase-labelled anti-rabbit IgG (1/5000)."}, "guinea pig liver tTG": {"target": "T1, guinea pig liver tTG (Cavia cutleri, UniProt P08587)", "T1 construct": "Purified guinea pig liver tTG was either obtained by Sigma-Aldrich or purified in the laboratory; tissue Sigma-Aldrich (or purified in the laboratory according to Leblanc et al., 1999); host or cells: guinea pig liver", "T1 sequence (P08587 2-690)": "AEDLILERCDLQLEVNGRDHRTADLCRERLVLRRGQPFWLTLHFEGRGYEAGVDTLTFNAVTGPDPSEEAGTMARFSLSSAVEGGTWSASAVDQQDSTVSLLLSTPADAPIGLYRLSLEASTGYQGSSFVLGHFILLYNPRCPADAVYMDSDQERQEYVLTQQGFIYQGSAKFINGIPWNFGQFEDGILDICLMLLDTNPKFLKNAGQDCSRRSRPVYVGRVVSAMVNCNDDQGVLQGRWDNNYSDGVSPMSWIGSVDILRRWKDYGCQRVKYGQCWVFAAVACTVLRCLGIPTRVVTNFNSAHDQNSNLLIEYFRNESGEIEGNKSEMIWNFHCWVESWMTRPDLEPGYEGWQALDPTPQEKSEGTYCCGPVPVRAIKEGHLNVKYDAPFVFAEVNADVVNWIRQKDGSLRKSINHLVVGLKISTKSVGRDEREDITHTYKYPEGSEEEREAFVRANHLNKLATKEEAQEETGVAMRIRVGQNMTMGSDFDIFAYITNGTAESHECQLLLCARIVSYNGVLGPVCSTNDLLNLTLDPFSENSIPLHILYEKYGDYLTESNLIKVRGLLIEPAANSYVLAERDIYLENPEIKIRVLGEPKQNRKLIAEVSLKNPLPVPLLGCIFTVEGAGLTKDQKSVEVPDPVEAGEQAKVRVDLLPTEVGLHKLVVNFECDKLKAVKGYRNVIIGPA", "test": "tTG cross-linking activity (incorporation of biotinylated cadaverine into FN)", "assay_type": "biochemical", "description": "The wells of a 96-well plate (0.32 cm^2) were coated with human plasma FN (5 μg/ml) in 50 mM Tris-HCl, pH 7.4, […], by incubation at 4° C. for approximately 15 h. For tTG immobilisation, the FN solution was removed, the wells were washed once in 50 mM Tris-HCl, pH 7.4 and then incubated with purified guinea pig liver tTG (20 μg/ml) in PBS pH 7.4 containing 2 mM EDTA pH 7.4, 100 μl/well. For control wells coated with tTG only, the tTG solution was added directly to tissue culture plastic (TCP). After one hour-incubation at 37° C., the tTG solution was removed and wells were washed once in 50 mM Tris-HCl, pH 7.4 and once in serum-free culture medium before cell seeding. The presence of tTG immobilised on FN was confirmed by an ELISA-type assay (Jones et al. 1997), using Cub 74 (1:5000). Absorbance values were read in an ELISA plate reader at 450 nm (Tecan Spectrafluor). Confirmation that the immobilised tTG was still active as a Ca^2+-dependent ε-(γ-glutamyl)lysine crosslinker was gained by measuring tTG activity with a microtitre assay that is based on the incorporation of biotinylated cadaverine into FN in the presence of 5 mM CaCl2 and 5 mM DTT (Jones et al. 1997) and compared with the activity of free tTG standard. To confirm that the cross-linking activity was Ca^2+-dependent, 5 mM CaCl2 was replaced with 5 mM EDTA pH 7.4. Absorbance values were read at 450 nm and data were expressed as absorbance value with Ca^2+ in the reaction buffer minus background absorbance value with EDTA in the reaction buffer. Similarly to tTG, FN antigen was detected by using a modified ELISA based on a rabbit polyclonal anti-FN antibody (1/5000) followed by peroxidase-labelled anti-rabbit IgG (1/5000)."}, "[1]": {"target": "T2, tTG activity found at the HOB cell-surface (Homo sapiens, UniProt P21980)", "T2 construct": "the low tTG activity found at the HOB cell-surface; endogenous in cells; host or cells: primary human osteoblasts (HOB)", "T2 sequence (P21980 1-687)": "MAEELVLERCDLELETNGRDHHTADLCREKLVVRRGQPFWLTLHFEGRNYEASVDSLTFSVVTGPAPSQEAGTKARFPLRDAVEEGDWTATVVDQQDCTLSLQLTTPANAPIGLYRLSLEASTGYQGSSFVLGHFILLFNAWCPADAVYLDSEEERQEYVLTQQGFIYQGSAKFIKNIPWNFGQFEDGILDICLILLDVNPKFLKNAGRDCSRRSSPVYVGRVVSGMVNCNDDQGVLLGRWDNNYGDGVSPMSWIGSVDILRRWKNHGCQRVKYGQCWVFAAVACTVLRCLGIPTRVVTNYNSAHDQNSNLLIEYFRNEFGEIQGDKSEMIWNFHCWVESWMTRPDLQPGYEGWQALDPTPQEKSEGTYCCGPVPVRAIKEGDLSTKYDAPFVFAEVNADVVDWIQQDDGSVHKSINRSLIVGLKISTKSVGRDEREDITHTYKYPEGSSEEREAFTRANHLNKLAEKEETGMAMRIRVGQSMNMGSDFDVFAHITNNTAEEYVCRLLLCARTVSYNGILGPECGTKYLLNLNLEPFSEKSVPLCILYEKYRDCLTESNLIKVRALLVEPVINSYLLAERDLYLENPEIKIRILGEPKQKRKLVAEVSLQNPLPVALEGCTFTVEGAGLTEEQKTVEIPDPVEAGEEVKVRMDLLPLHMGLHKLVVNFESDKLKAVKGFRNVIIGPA", "test": "tTG activity at the HOB cell-surface", "assay_type": "cell-based", "details": "R283 treatment; data not shown"}, "[2]": {"details": "enzyme pre-treatment 15 mU/ml, RGD 100 μg/ml"}}, "note": "Read-outs that look alike come from different tables or passages of the source.", "data": [{"compound": "GRADSP [RAD peptide]", "values": [{"measurement": "cell attachment on FN compared to untreated cells (RAD 0)", "setting": "HOB cells; 200 μg/ml RAD control peptide", "value": "reduction in cell attachment"}]}, {"compound": "Cn1c2ccccc2c2c3c(c4c5ccccc5n(CCC#N)c4c21)CNC3=O", "note": "[GO6976]", "values": [{"measurement": "effect on inhibition of attachment and spreading mediated by the RGD peptide", "setting": "HOB cells; 5 μM GO6976, FN + RGD", "value": "significantly augment the inhibition"}, {"measurement": "inhibition at 5 µM", "setting": "HOB cells; 5 μM GO6976, RGD peptide, read-out: inhibition of attachment mediated by the tTG-FN complex", "value": "> 90", "unit": "%"}, {"measurement": "inhibition at 5 µM", "setting": "HOB cells; 5 μM GO6976, RGD peptide, read-out: inhibition of spreading mediated by the tTG-FN complex", "value": "~85", "unit": "%"}, {"measurement": "inhibition at 5 µM", "setting": "HOB cells; 5 μM GO6976, control peptide RAD, read-out: inhibition of attachment on FN", "value": "~30", "unit": "%"}, {"measurement": "inhibition at 5 µM", "setting": "HOB cells; 5 μM GO6976, control peptide RAD, read-out: inhibition of spreading on FN", "value": "~30", "unit": "%"}]}, {"compound": "Nc1nc2c(ncn2[C@@H]2O[C@H](COP(=O)(O)OP(=O)(O)OP(O)(O)=S)[C@@H](O)[C@H]2O)c(=O)[nH]1", "note": "[GTP-γS]", "values": [{"measurement": "level of tTG immobilised on FN", "setting": "human plasma FN", "value": "did not significantly alter"}, {"measurement": "RGD-independent cell attachment and spreading mediated by tTG-FN", "setting": "HOB cells; 1 mM GTP-γS, RGD 100 μg/ml", "value": "partially but significantly reduced"}, {"measurement": "transamidating activity of FN-bound tTG", "setting": "guinea pig liver tTG; GTP-γS, DMEM with reducing agent, data not shown", "value": "acts as transamidating inhibitor"}]}, {"compound": "chondroitinase ABC", "values": [{"measurement": "cell adhesion to FN", "setting": "HOB cells; chondroitinase ABC 15 mU/ml", "value": "no significant affect"}, {"measurement": "RGD-independent cell attachment on tTG-FN", "setting": "HOB cells; [2]", "value": "only marginally affected"}, {"measurement": "RGD-independent cell spreading on tTG-FN", "setting": "HOB cells; [2]", "value": "did not significantly alter"}]}, {"compound": "CC(=O)CSc1n(C)cc[n+]1C.[Cl-]", "note": "[R283]", "values": [{"measurement": "cell adhesion on FN bound to R283-inactivated tTG relative to adhesion on FN with RGD peptide", "setting": "HOB cells; 100 μM R283", "value": "twice"}, {"measurement": "cell adhesion on FN bound to R283-inactivated tTG versus without R283", "setting": "HOB cells; 100 μM R283, with or without RGD peptide", "value": "not significantly different"}, {"measurement": "transamidating activity of immobilised tTG", "setting": "guinea pig liver tTG; 100 μM R283", "value": "completely blocked"}, {"measurement": "tTG activity at the HOB cell-surface", "setting": "[1]", "value": "inhibited to negligible values"}]}, {"compound": "O[C@@H](CS)[C@@H](O)CS", "note": "[DTT]", "values": [{"measurement": "increase of transamidating activity of FN-bound tTG", "setting": "guinea pig liver tTG; DMEM with 5 mM DTT versus DMEM", "value": "approx 6 fold"}]}]}
